From publication PMC10089987, “The lipoxygenase OsLOX10 affects seed longevity and resistance to saline-alkaline stress during rice seedlings” (Plant Molecular Biology, 2023)

Target: T1, LOX10 (OsLOX10) (Oryza sativa, UniProt B7EMC8)
T1 construct: full-length CDS (2607 bp, 868 aa) in pET28a(+), His tag, E. coli BL21(DE3) lysate supernatant, about 98 kDa plus tag (band at 100 kDa)
Test: KI-I2 starch staining (colour)
Format: biochemical
Conditions: E. coli lysate supernatant with recombinant LOX10, 0.5 µg protein/µl and dilutions; controls pET28a(+) supernatant and PBS

T1 sequence (B7EMC8 1-868): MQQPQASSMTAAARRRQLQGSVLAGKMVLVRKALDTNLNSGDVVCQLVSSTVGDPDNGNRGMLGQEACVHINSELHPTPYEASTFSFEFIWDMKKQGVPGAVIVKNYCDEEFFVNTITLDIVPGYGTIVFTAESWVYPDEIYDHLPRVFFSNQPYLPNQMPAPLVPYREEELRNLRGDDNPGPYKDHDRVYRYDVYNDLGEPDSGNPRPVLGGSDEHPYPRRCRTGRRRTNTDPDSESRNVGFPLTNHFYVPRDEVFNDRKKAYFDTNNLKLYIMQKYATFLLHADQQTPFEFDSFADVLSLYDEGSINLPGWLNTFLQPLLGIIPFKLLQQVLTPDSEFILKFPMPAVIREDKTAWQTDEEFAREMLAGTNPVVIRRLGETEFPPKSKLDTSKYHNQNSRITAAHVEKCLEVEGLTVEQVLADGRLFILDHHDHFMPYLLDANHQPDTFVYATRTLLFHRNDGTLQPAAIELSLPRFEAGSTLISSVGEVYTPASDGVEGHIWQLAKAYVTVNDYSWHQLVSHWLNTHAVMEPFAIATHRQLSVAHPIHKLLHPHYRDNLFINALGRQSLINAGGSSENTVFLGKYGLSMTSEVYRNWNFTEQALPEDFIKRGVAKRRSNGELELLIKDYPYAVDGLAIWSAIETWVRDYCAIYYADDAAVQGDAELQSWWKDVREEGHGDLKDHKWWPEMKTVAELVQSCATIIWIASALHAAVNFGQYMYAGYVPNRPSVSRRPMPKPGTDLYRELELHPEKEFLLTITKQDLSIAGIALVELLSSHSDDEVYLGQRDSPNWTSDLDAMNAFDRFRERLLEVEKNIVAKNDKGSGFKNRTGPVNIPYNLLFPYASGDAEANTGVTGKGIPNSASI

CCCCC/C=C\C/C=C\CCCCCCCC(=O)O [LA, linoleic acid]
KI-I2 starch staining (colour): The KI-I2 staining showed that LOX10 could metabolize the substrate LA to produce starch
